From US9091678B2, “Method for identifying compounds useful for treating and/or preventing disease-associated bone loss” (priority 2008, dated 2015)

How the values were obtained:
[1] = test system: RAW264.7 cells differentiated in osteoclasts; assay: Toxicity test on differentiated osteoclasts (TRAP staining, morphology); format: cell-based; set-up: key: compounds which induce the death of all the osteoclasts after 72 hours (−); compounds which induce morphological anomalies and/or death of part of the osteoclasts (+/−); +: Compounds which do not induce visible modifications of the osteoclasts; details: at the concentration given in Table 2, vs 0.5% DMSO control
Experimental: The compounds were tested for their toxicity on differentiated osteoclasts at the concentration determined above. RAW264.7 cells differentiated in osteoclasts were allowed to grow for 72 hours in presence of the tested compounds. […] This osteoclasts specific labeling permits to visualize the cell morphology. The cell morphology was then compared to control cells which were allowed to grow in presence of 0.5% DMSO.

RAW264.7 cells = assay: Toxicity test on osteoclast precursors; format: cell-based; details: RAW264.7 cells grown 72 hours with 10 to 100 μM of compound, vs 0.5% DMSO control
Experimental: The selected compounds were then tested for their toxicity on osteoclast precursors. […] RAW264.7 cells used as osteoclasts […] were allowed to grow for 72 hours with 10 to 100 μM of compound. The growth of the cells was compared to control cells which were grown with 0.5% DMSO.

CCOc1ccc(NC(=O)CSc2nnc(-c3ccc(OC)cc3)o2)cc1 [Compound 3, N-(4-ethoxyphenyl)-2-{[5-(4-methoxyphenyl)-1,3,4-oxadiazol-2-yl]thio}acetamide]
Survival at 72 hours [1]: +/−

O=C(O)CCC(=O)N1N=C(c2ccc([N+](=O)[O-])cc2)CC1c1ccc(Br)cc1 (stereo not drawn) [Compound 4, 4-[5-(4-bromophenyl)-3-(4-nitrophenyl)-4,5-dihydro-1H-pyrazol-1-yl]-4-oxobutanoic acid]
Survival at 72 hours [1]: −

Cc1ccc(N(C(=O)C(Cl)(Cl)Cl)C2C=CS(=O)(=O)C2)cc1 (stereo not drawn) [Compound 5, 2,2,2-trichloro-N-(1,1-dioxido-2,3-dihydro-3-thienyl)-N-(4-methylphenyl)acetamide]
Survival at 72 hours [1]: −

Cc1ccc(/C=C/C(=O)Nc2ccccc2Br)o1 [Compound 6, N-(2-bromophenyl)-3-(5-methyl-2-furyl)acrylamide]
Survival at 72 hours [1]: +

O=C(COc1cccc2ccccc12)Nc1ccc2c(c1)OCCO2 [Compound 10, N-(2,3-dihydro-1,4-benzodioxin-6-yl)-2-(1-naphthyloxy)acetamide]
Survival at 72 hours [1]: +

C=C1c2ccc(C)cc2NC(=O)N1c1cccc(Cl)c1 [Compound 11, 3-(3-chlorophenyl)-7-methyl-4-methylene-3,4-dihydro-2(1H)-quinazolinone]
Survival at 72 hours [1]: −

O=C(COc1ccccc1Cl)Nc1cc(C(F)(F)F)ccc1Cl [Compound 12, 2-(2-chlorophenoxy)-N-[2-chloro-5-(trifluoromethyl)phenyl]acetamide]
Survival at 72 hours [1]: +

CCC(=O)Nc1ccc(N2CCN(C(C)=O)CC2)cc1 [Compound 13, N-[4-(4-acetyl-1-piperazinyl)phenyl]propanamide]
Survival at 72 hours [1]: +

Cc1cc(=O)n2ccc(CN(C)C)c(O)c2n1 [Compound 14, 8-[(dimethylamino)methyl]-9-hydroxy-2-methyl-4H-pyrido[1,2-a]pyrimidin-4-one]
Survival at 72 hours [1]: +

O=C1/C(=C\c2ccc([N+](=O)[O-])cc2)SC(=S)N1c1cccc(C(F)(F)F)c1 [Compound 16, 5-(4-nitrobenzylidene)-2-thioxo-3-[3-(trifluoromethyl)phenyl]-1,3-thiazolidin-4-one]
Survival at 72 hours [1]: +/−

CC1=NN(c2cccc(C(=O)O)c2)C(=O)/C1=C\c1cccc(Br)c1 [Compound 18, 3-[4-(3-bromobenzylidene)-3-methyl-5-oxo-4,5-dihydro-1H-pyrazol-1-yl]benzoic acid]
Survival at 72 hours [1]: −

O=C(Nc1cccc2nsnc12)c1ccc(Br)o1 [Compound 20, N-2,1,3-benzothiadiazol-4-yl-5-bromo-2-furamide]
Survival at 72 hours [1]: −

O=C(Nc1cc(Cl)cc(Cl)c1)S(=O)(=O)c1ccccc1 [Compound 21, (3,5-dichlorophenyl)[(phenylsulfonyl)carbonyl]amine]
Survival at 72 hours [1]: +/−

CC(=O)N1CCN(c2ccc([N+](=O)[O-])cc2Cl)CC1C (stereo not drawn) [Compound 22, 1-acetyl-4-(2-chloro-4-nitrophenyl)-2-methylpiperazine]
Survival at 72 hours [1]: −

COc1cccc(/C=C2/C=C(c3ccc(C)cc3)OC2=O)c1 [Compound 23, 3-(3-methoxybenzylidene)-5-(4-methylphenyl)-2(3H)-furanone]
Survival at 72 hours [1]: −

O=C(O)/C=C/c1ccc(-c2ccc(Cl)c(Cl)c2)o1 [Compound 24, 3-[5-(3,4-dichlorophenyl)-2-furyl]acrylic acid]
Survival at 72 hours [1]: −

CCOC(=O)C1=C(C)N=c2sc(=Cc3cc(Cl)c(OCC(=O)O)c(OC)c3)c(=O)n2C1c1ccccc1Cl (stereo not drawn) [Compound 25, (2-chloro-4-{[5-(2-chlorophenyl)-6-(ethoxycarbonyl)-7-methyl-3-oxo-5H-[1,3]thiazolo[3,2-a]pyrimidin-2(3H)-ylidene]methyl}-6-methoxyphenoxy)acetic acid]
Survival at 72 hours [1]: −

O=S(=O)(c1cccc2nsnc12)N1CCN(C(c2ccccc2)c2ccccc2)CC1 [Compound 26, 4-{[4-(diphenylmethyl)-1-piperazinyl]sulfonyl}-2,1,3-benzothiadiazole]
Survival at 72 hours [1]: −

CCOc1ccc(C(=O)Nc2ccc(N3CCN(C(C)=O)CC3)cc2)cc1[N+](=O)[O-] [Compound 27, N-[4-(4-acetyl-1-piperazinyl)phenyl]-4-ethoxy-3-nitrobenzamide]
Survival at 72 hours [1]: +

CC(C)(C)c1cc(C2Nc3cccc4cccc(c34)N2)cc(C(C)(C)C)c1O [Compound 30, 2,6-di-tert-butyl-4-(2,3-dihydro-1H-perimidin-2-yl)phenol]
Survival at 72 hours [1]: −

O=C1c2ccccc2NC(c2c(Cl)cccc2Cl)N1Cc1ccccc1 (stereo not drawn) [Compound 33, 3-benzyl-2-(2,6-dichlorophenyl)-2,3-dihydro-4(1H)-quinazolinone]
Survival at 72 hours [1]: −

Oc1ccc(-c2nc(-c3ccccc3)c(-c3cccs3)[nH]2)cc1O [Compound 34, 4-[4-phenyl-5-(2-thienyl)-1H-imidazol-2-yl]-1,2-benzenediol]
Survival at 72 hours [1]: −

O=Cc1cn(Cc2ccc(Cl)c(Cl)c2)c2ccccc12 [Compound 35, 1-(3,4-dichlorobenzyl)-1H-indole-3-carbaldehyde]
Survival at 72 hours [1]: −
Concentration μM (optimal concentration which does not affect the growth of the cells) (RAW264.7 cells): 50 µM

COc1ccc(NC(=O)c2ccc(N(C)S(=O)(=O)c3ccccc3)cc2)cc1OC [Compound 37, N-(3,4-dimethoxyphenyl)-4-[methyl(phenylsulfonyl)amino]benzamide]
Survival at 72 hours [1]: −

O=C(/C=C/c1ccc(F)cc1)Nc1ccccc1Cl [Compound 40, N-(2-chlorophenyl)-3-(4-fluorophenyl)acrylamide]
Survival at 72 hours [1]: +

Oc1ccccc1C(=S)N1N=C(c2ccccc2)CC1(O)C(F)(F)F (stereo not drawn) [Compound 42, 1-[(2-hydroxyphenyl)carbonothioyl]-3-phenyl-5-(trifluoromethyl)-4,5-dihydro-1H-pyrazol-5-ol]
Survival at 72 hours [1]: −

COc1cc([N+](=O)[O-])ccc1N=S(C)C [Compound 43, 1-[(dimethyl-lambda~4~-sulfanylidene)amino]-2-methoxy-4-nitrobenzene]
Survival at 72 hours [1]: +

COCCOC(=O)c1ccc(NC(=O)c2ccc(C(C)(C)C)cc2)cc1 [Compound 44, 2-methoxyethyl 4-[(4-tert-butylbenzoyl)amino]benzoate]
Survival at 72 hours [1]: −

COc1ccccc1NC(=O)/C(=C\c1cccs1)NC(=O)c1ccc(C(C)(C)C)cc1 [Compound 46, 4-tert-butyl-N-[1-{[(2-methoxyphenyl)amino]carbonyl}-2-(2-thienyl)vinyl]benzamide]
Survival at 72 hours [1]: +

Cc1ccc(/C=C/C(=O)Nc2cccc(Cl)c2Cl)o1 [Compound 47, N-(2,3-dichlorophenyl)-3-(5-methyl-2-furyl)acrylamide]
Survival at 72 hours [1]: −

O=C1NC(=O)N(c2ccccc2Cl)C(=O)C1=Cc1ccccc1 [Compound 48, 5-benzylidene-1-(2-chlorophenyl)-2,4,6(1H,3H,5H)-pyrimidinetrione]
Survival at 72 hours [1]: +
Concentration μM (optimal concentration which does not affect the growth of the cells) (RAW264.7 cells): 100 µM

O=C(Nc1ccccc1)Nc1nnc(C23CC4CC(CC(C4)C2)C3)s1 [Compound 49, N-[5-(1-adamantyl)-1,3,4-thiadiazol-2-yl]-N′-phenylurea]
Survival at 72 hours [1]: +/−

CCc1nc(-c2ccccc2)nc(C)c1C [Compound 50, 4-ethyl-5,6-dimethyl-2-phenylpyrimidine]
Survival at 72 hours [1]: +

COc1ccc(NC(=O)c2ccccc2Cl)cc1Cl [Compound 51, 2-chloro-N-(3-chloro-4-methoxyphenyl)benzamide]
Survival at 72 hours [1]: +

Cc1ccc(OCc2nnc(NC(=O)Nc3ccc(Cl)c(Cl)c3)s2)cc1 [Compound 53, N-(3,4-dichlorophenyl)-N′-{5-[(4-methylphenoxy)methyl]-1,3,4-thiadiazol-2-yl}urea]
Survival at 72 hours [1]: +/−

O=C(/C=C/c1cccc(C(F)(F)F)c1)Nc1ccc(F)cc1 [Compound 54, N-(4-fluorophenyl)-3-[3-(trifluoromethyl)phenyl]acrylamide]
Survival at 72 hours [1]: −

O=C1c2ccccc2NC(c2ccccc2O)N1Cc1ccco1 (stereo not drawn) [Compound 55, 3-(2-furylmethyl)-2-(2-hydroxyphenyl)-2,3-dihydro-4(1H)-quinazolinone]
Survival at 72 hours [1]: −
